In patent US9145425B2, “Cephem compound having catechol group” (SHIONOGI & CO., LTD., priority 2010, dated 2015):
Converted amounts (≈) assume the structure as drawn.

Legend:
Type in all cases: cell-based
[1] = tested on: Acinetobacter baumannii SR24396; assay: Minimum Inhibitory Concentration (MIC), agar plate incubation, Japan Society for Chemotherapy standard method; conditions: Acinetobacter baumannii SR24396, no enzyme, 1000 cfu/spot, sensitive disc medium
Procedure: (§1) The antimicrobial activity in vitro of the present compound (I) was determined.
(§2) Measurement of Minimum Inhibitory Concentration (MIC, μg/ml) was conducted according to the standard method of the Japan Society for Chemotherapy and the amount of bacteria for inoculation was 1000 cfu/spot, and sensitive disc medium was used as the test medium, and conducted using agar plate incubation.
(§3) In the tables, the unit of the values of inhibitory activity is μg/ml.

[2] = tested on: Klebsiella pneumoniae ATCC 700603; assay: as above; conditions: Klebsiella pneumoniae ATCC 700603, SHV-18, ESBL producer strain, 1000 cfu/spot, sensitive disc medium
Procedure: as §1, §2, §3

[3] = tested on: Pseudomonas aeruginosa SR24; assay: as above; conditions: Pseudomonas aeruginosa SR24, no enzyme, ceftazidime sensitive strain, 1000 cfu/spot, sensitive disc medium
Procedure: as §1, §2, §3

[4] = tested on: Pseudomonas aeruginosa SR27060; assay: as above; conditions: Pseudomonas aeruginosa SR27060, IMP-1, MBL producer strain (carbapenem resistant strain), 1000 cfu/spot, sensitive disc medium
Procedure: as §1, §2, §3

[5] = tested on: Stenotrophomonas maltophilia SR21970; assay: Minimum Inhibitory Concentration (MIC), agar plate incubation, CLSI method; conditions: Stenotrophomonas maltophilia SR21970, L-1, MBL producer strain (carbapenem resistant strain), 10000 cfu/spot, Mueller-Hinton agar medium
Procedure: as §1
Measurement of Minimum Inhibitory Concentration (MIC, μg/ml) was conducted according to the CLSI (Clinical and Laboratory Standards Institute) and the amount of bacteria for inoculation was 10000 cfu/spot, and Mueller-Hinton agar medium was used as the test medium, and conducted using agar plate incubation.
as §3

[6] = read-out: Minimum Inhibitory Concentration (MIC)

| Compound | MIC [1, 6] [µg/mL] | MIC ([2]; ATCC700603, read-out: Minimum Inhibitory Concentration (MIC)) [µg/mL] | MIC [3, 6] [µg/mL] | MIC [4, 6] [µg/mL] | MIC [5, 6] [µg/mL] | Minimum Inhibitory Concentration (MIC) [1] [µg/mL] | Minimum Inhibitory Concentration (MIC) [2] [µg/mL] | Minimum Inhibitory Concentration (MIC) [3] [µg/mL] | Minimum Inhibitory Concentration (MIC) [4] [µg/mL] | Minimum Inhibitory Concentration (MIC) [5] [µg/mL] |
| --- | --- | --- | --- | --- | --- | --- | --- | --- | --- | --- |
| CC(C)(O/N=C(\C(=O)N[C@@H]1C(=O)N2C(C(=O)[O-])=C(C[N+]34CCC(CC3)[C@H](NC(=O)c3ccc(O)c(O)c3Cl)C4)CS[C@H]12)c1csc(N)n1)C(=O)O [Compound I-19] | 0.125 (≈ 0.164 µM) | 0.5 (≈ 0.654 µM) | 0.125 (≈ 0.164 µM) | 0.125 (≈ 0.164 µM) | 0.5 (≈ 0.654 µM) |  |  |  |  |  |
| CC(C)(O/N=C(\C(=O)N[C@@H]1C(=O)N2C(C(=O)[O-])=C(C[N+](C)(C)C3CCN(C(=O)c4ccc(O)c(O)c4Cl)CC3)CS[C@H]12)c1csc(N)n1)C(=O)[O-].[Na+] [Compound I-21] |  |  |  |  |  | 0.125 | 0.5 | 0.125 | 1 | 1 |
| CC(ON=C(C(=O)NC1C(=O)N2C(C(=O)[O-])=C(C[N+]34CCC(CC3)N(C(=O)c3ccc(O)c(O)c3Cl)CC4)CSC12)c1csc(N)n1)C(=O)[O-].[Na+] (centres unmarked) [Compound I-23] |  |  |  |  |  | 0.125 | 0.5 | 0.063 | 0.5 | 1 |
| CC(C)(ON=C(C(=O)NC1C(=O)N2C(C(=O)[O-])=C(C[N+]34CCCC3CN(C(=O)c3ccc(O)c(O)c3Cl)CC4)CSC12)c1csc(N)n1)C(=O)[O-].[Na+] (centres unmarked) [Compound I-31] |  |  |  |  |  | 0.25 | 1 | 0.063 | 0.5 | 1 |
| CC(C)(O/N=C(\C(=O)N[C@@H]1C(=O)N2C(C(=O)[O-])=C(C[N+]34CCC(CC3)N(C(=O)c3ccc(O)c(O)c3Cl)CC4)CS[C@H]12)c1nsc(N)n1)C(=O)[O-].[Na+] [Compound I-34] |  |  |  |  |  | 0.125 | 0.5 | 0.063 | 0.5 | 0.5 |
| CC(ON=C(C(=O)NC1C(=O)N2C(C(=O)[O-])=C(C[N+]34CCC(CNC(=O)c5ccc(O)c(O)c5Cl)(CC3)CC4)CSC12)c1csc(N)n1)C(=O)[O-].[Na+] (centres unmarked) [Compound I-35] |  |  |  |  |  | 0.5 | 1 | 0.063 | 0.25 | 1 |
| CC(ON=C(C(=O)NC1C(=O)N2C(C(=O)[O-])=C(C[N+]3(CCNC(=O)c4ccc(O)c(O)c4Cl)CCCC3)CSC12)c1csc(N)n1)C(=O)[O-].[Na+] (centres unmarked) [Compound I-36] |  |  |  |  |  | 0.5 | 0.5 | 0.125 | 0.25 | 1 |
| CCC(ON=C(C(=O)NC1C(=O)N2C(C(=O)[O-])=C(C[N+]34CCCC3CN(C(=O)c3ccc(O)c(O)c3Cl)CC4)CSC12)c1csc(N)n1)C(=O)[O-].[Na+] (centres unmarked) [Compound I-37] |  |  |  |  |  | 0.125 | 0.5 | 0.125 | 1 | 1 |
| NC(=O)CC(ON=C(C(=O)NC1C(=O)N2C(C(=O)[O-])=C(C[N+]34CCCC3CN(C(=O)c3ccc(O)c(O)c3Cl)CC4)CSC12)c1csc(N)n1)C(=O)[O-].[Na+] (centres unmarked) [Compound I-38] |  |  |  |  |  | 0.25 | 1 | 0.125 | 2 | 1 |
| C[N+]1(CC2=C(C(=O)[O-])N3C(=O)C(NC(=O)C(=NOC(CC(=O)[O-])C(=O)[O-])c4csc(N)n4)C3SC2)CC2CN(C(=O)c3ccc(O)c(O)c3Cl)CC2C1.[Na+].[Na+] (centres unmarked) [Compound I-41] |  |  |  |  |  | 0.125 | 0.5 | 0.125 | 0.5 | 1 |
